Measurements from article PMC8434776 (Antiviral research, 2021).
Like-named read-outs stand apart in the source and are kept apart here.

Legend:
[1] = biological target: T1, human cytochrome P450 51 (hCYP51) (Homo sapiens, UniProt Q16850); assay: enzymatic assay, [[…]-3H]lanosterol conversion by purified hCYP51/CPR, radio-HPLC; assay type: biochemical
T1 sequence (Q16850 1-509): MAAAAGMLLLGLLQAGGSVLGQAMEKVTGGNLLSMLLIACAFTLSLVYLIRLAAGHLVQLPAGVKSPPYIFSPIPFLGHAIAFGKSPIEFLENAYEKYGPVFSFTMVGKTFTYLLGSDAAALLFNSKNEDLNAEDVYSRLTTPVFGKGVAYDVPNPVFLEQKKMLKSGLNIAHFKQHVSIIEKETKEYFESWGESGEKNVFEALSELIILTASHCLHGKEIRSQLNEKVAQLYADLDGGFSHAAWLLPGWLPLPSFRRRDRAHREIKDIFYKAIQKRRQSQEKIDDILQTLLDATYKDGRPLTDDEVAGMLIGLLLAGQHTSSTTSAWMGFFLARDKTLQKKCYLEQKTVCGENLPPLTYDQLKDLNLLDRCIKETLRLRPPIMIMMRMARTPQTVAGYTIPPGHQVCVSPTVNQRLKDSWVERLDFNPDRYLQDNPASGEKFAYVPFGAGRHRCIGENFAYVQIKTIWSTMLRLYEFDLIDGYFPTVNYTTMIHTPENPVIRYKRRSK

[2] = biological target: T1, human cytochrome P450 51 (hCYP51); assay: as above; assay type: biochemical; remark: listed apart in the source

Row | SMILES | IC50 [1] | IC50 [2]
1 | C[C@@H](c1nc(-c2ccc(C#N)cc2)cs1)[C@](O)(Cn1cncn1)c1cc(F)ccc1F [ICZ, isavuconazole] | 50.5 µM | 
2 | CC[C@@H]([C@H](C)O)n1ncn(-c2ccc(N3CCN(c4ccc(OC[C@@H]5CO[C@@](Cn6cncn6)(c6ccc(F)cc6F)C5)cc4)CC3)cc2)c1=O [PCZ, posaconazole] |  | 8.3 µM
